# In ChEMBL document CHEMBL1955768, “Impact of stereochemistry on the biological activity of novel oleandomycin derivatives” (Bioorg Med Chem, 2012):
# Active and inactive are the calls of the source. No cut-off for these calls is given here.
# What was measured:
# Staphylococcus aureus = test: Antibacterial activity against Staphylococcus aureus ATCC 13709 by broth microdilution method; type: functional
# Streptococcus pneumoniae = test: Antibacterial activity against Streptococcus pneumoniae ATCC 49619 by broth microdilution method; type: functional
# Streptococcus pyogenes = test: Antibacterial activity against Streptococcus pyogenes ATCC 700294 by broth microdilution method; type: functional; conditions: M1 GAS
# Moraxella catarrhalis = test: Antibacterial activity against Moraxella catarrhalis ATCC 23246 by broth microdilution method; type: functional
# Haemophilus influenzae = test: Antibacterial activity against Haemophilus influenzae ATCC 49247 by broth microdilution method; type: functional
# Splenocyte = test: Inhibition of LPS-induced IL-6 production in mouse splenocytes at 50 uM after 2 hrs preincubation by ELISA; type: functional
# THP-1 = test: Cytotoxicity against human THP1 cells at 100 uM after 24 hrs by MTS assay; type: cell-based; conditions: thp-1, 24 h
# Mus musculus = test: Antiinflammatory activity against LPS-induced lung neutrophilia in BALB/cJ mouse model assessed as reduction in neutrophil numbers in bronchoalveolar lavage fluid at 100 mg/kg, ip treated 2 hrs before LPS challenge measured after 24 hrs by hematological analyzer; type: functional, organism-based; design: dose 100 mg/kg
MIC (Staphylococcus aureus),MIC (Streptococcus pneumoniae),MIC (Streptococcus pyogenes),MIC (Moraxella catarrhalis),MIC (Haemophilus influenzae),SMILES,inhibition at 50 µM (Splenocyte),Activity (THP-1),Activity (Mus musculus)
> 64 µg/mL,> 64 µg/mL,> 64 µg/mL,> 64 µg/mL,> 64 µg/mL,CO[C@H]1C[C@H](O[C@H]2[C@H](C)[C@@H](O[C@@H]3O[C@H](C)C[C@H](N(C)C)[C@H]3O)[C@@H](C)C[C@H](C)C(=O)[C@H](C)[C@@H](O)[C@@H](C)[C@@H](C)OC(=O)[C@@H]2C)O[C@@H](C)[C@@H]1O,42%,Non-toxic,
> 64 µg/mL,> 64 µg/mL,> 64 µg/mL,> 64 µg/mL,> 64 µg/mL,CO[C@H]1C[C@H](O[C@H]2[C@H](C)[C@@H](O[C@@H]3O[C@H](C)C[C@H](N(C)C)[C@H]3O)[C@@H](C)C[C@H](C)[C@@H](O)[C@H](C)[C@@H](O)[C@@H](C)[C@@H](C)OC(=O)[C@@H]2C)O[C@@H](C)[C@@H]1O,2%,Non-toxic,Active
> 64 µg/mL,4 µg/mL,> 64 µg/mL,> 64 µg/mL,> 64 µg/mL,CO[C@H]1C[C@H](O[C@H]2[C@H](C)[C@@H](O[C@@H]3O[C@H](C)C[C@H](N(C)C)[C@H]3O)[C@@H](C)C[C@@H](C)[C@H](O)[C@H](C)[C@@H](O)[C@@H](C)[C@@H](C)OC(=O)[C@@H]2C)O[C@@H](C)[C@@H]1O,61%,Non-toxic,Active
> 64 µg/mL,> 64 µg/mL,> 64 µg/mL,> 64 µg/mL,> 64 µg/mL,C=C1C[C@H](C)[C@H](O[C@@H]2O[C@H](C)C[C@H](N(C)C)[C@H]2O)[C@@H](C)[C@H](O[C@H]2C[C@H](OC)[C@@H](O)[C@H](C)O2)[C@@H](C)C(=O)O[C@H](C)[C@H](C)[C@H](O)[C@@H](C)[C@H]1O,13%,Non-toxic,
4 µg/mL,0.25 µg/mL,0.5 µg/mL,2 µg/mL,> 64 µg/mL,CO[C@H]1C[C@H](O[C@H]2[C@H](C)[C@@H](O[C@@H]3O[C@H](C)C[C@H](N(C)C)[C@H]3O)[C@@H](C)C[C@@H](C)C(=O)[C@H](C)[C@@H](O)[C@@H](C)[C@@H](C)OC(=O)[C@@H]2C)O[C@@H](C)[C@@H]1O,69%,Non-toxic,
> 64 µg/mL,> 64 µg/mL,> 64 µg/mL,> 64 µg/mL,> 64 µg/mL,C=C1C[C@H](C)[C@H](O[C@@H]2O[C@H](C)C[C@H](N(C)C)[C@H]2O)[C@@H](C)[C@H](O[C@H]2C[C@H](OC)[C@@H](O)[C@H](C)O2)[C@@H](C)C(=O)O[C@H](C)[C@H](C)[C@H](O)[C@@H](C)[C@@H]1O,13%,Non-toxic,
> 64 µg/mL,> 64 µg/mL,> 64 µg/mL,> 64 µg/mL,> 64 µg/mL,CO[C@H]1C[C@H](O[C@H]2[C@H](C)[C@@H](O[C@@H]3O[C@H](C)C[C@H](N(C)C)[C@H]3O)[C@@H](C)C[C@@H](C)[C@@H](O)[C@H](C)[C@@H](O)[C@@H](C)[C@@H](C)OC(=O)[C@@H]2C)O[C@@H](C)[C@@H]1O,2%,Non-toxic,
> 64 µg/mL,> 64 µg/mL,> 64 µg/mL,> 64 µg/mL,> 64 µg/mL,CO[C@H]1C[C@H](O[C@H]2[C@H](C)[C@@H](O[C@@H]3O[C@H](C)C[C@H](N(C)C)[C@H]3O)[C@@H](C)C[C@H](C)[C@H](O)[C@H](C)[C@@H](O)[C@@H](C)[C@@H](C)OC(=O)[C@@H]2C)O[C@@H](C)[C@@H]1O,12%,Non-toxic,
